{"source": "patent US20240293367A1", "about": "“METHODS OF TREATING DISORDERS WITH A […]” (Cybin IRL Limited, priority 2023, published 2024)", "test_system": "participants with MDD", "assay": "MADRS total score, response, remission and relapse in MDD participants (Phase I/IIa study)", "assay_type": "in vivo, human", "details": "for effect size, Cohen's d, versus placebo (MADRS): Day 21", "source_text": "Cohorts 1, 4, 5, and 6 of the study was comprised of participants with MDD. Cohorts 2, 3, and the relative BA cohort of the study were comprised of normal healthy volunteers (NHV). […] MDD participants had been on a stable dose of antidepressant medication for at least one month prior to screening with an inadequate response to that antidepressant medication as judged by the Investigator, and continued to receive their prescribed antidepressant throughout the course of the study.\nCohorts 4 and 5. For Cohorts 4 and 5, 12 participants each (24 participants total) were randomized in a 3:1 ratio to receive 12 mg of psilocin-d10 or matched placebo in a single dosing session on Day 1. Following a 21-day interval, all participants received a dose of 12 mg psilocin-d10 on Day 22 (second dose for participants originally randomized to psilocin-d10, first dose for participants randomized to placebo), and were followed to Day 42.\nCohort 6. For Cohort 6, 12 participants were randomized in a 3:1 ratio to receive 16 mg of psilocin-d10 or matched placebo in a single dosing session on Day 1. Following a 21-day interval, all participants received a dose of 16 mg psilocin-d10 on Day 22 (second dose for participants originally randomized to psilocin-d10, first dose for participants randomized to placebo), and were followed to Day 42. Given the availability of data and considering that the secondary endpoint was a change in baseline to Day 21 in MADRS, efficacy data presented herein considers the data cut off of Day 21 postdose. One participant had to be withdrawn from the study due to pregnancy.\nThe primary efficacy endpoint defined in the statistical analysis plan (SAP) is the change from baseline to Day 21 of the total Montgomery-Åsberg Depression Rating Scale (MADRS) score compared to placebo, therefore efficacy data presented herein considers the data cut off of Day 21 postdose. Mean total score and change from baseline on Montgomery-Åsberg Depression Rating Scale (MADRS) on days 1, 10, 17, 22, 31, 38, and 42 are presented as secondary efficacy endpoints.\nThe secondary objective of the study was to evaluate the efficacy of psilocin-d10 in treating symptoms of MDD as measured by the change from baseline to Day 21 of the MADRS total score in the Intent-to-Treat population, with data analyzed according to the treatment group each participant was randomized to receive. Data from participants in Cohorts 4, 5, and 6 randomized to placebo was pooled for analysis purposes (N=9). Data from participants in Cohorts 4, 5, and 6 randomized to 12 mg or 16 mg psilocin-d10 (N=27) was also pooled for analysis.\nData from the study was also analyzed according to dosage level of psilocin-d10. Data from participants in Cohorts 4, 5, and 6 randomized to placebo was pooled for analysis purposes (N=9). Data from participants in Cohorts 4 and 5 (treated with 12 mg psilocin-d10) was also pooled for analysis (N=18).\nThe rates of remission, response, and relapse were also evaluated within the study. […] Additionally, 20.8% (5 out of 24) of participants in the psilocin-do group (12 mg and 16 mg combined) were in remission (remitters) (defined as a MADRS score of ≤10) compared to 0% for placebo at Day 21. The same 5 participants who were in remission were also classified as responders. None of the participants relapsed at Day 21 compared to baseline.\nThe MADRS is a 10-item scale with ratings based on a clinical interview which moves from broadly phrased questions about symptoms to more detailed ones allowing a precise rating of severity. A rating scale from 0 to 6 is employed and the rater must decide whether the rating lies on defined scale steps (0, 2, 4, 6) or between them (1, 3, 5). The MADRS can be used for any time interval between ratings, be it weekly or otherwise, and the time interval should be recorded. […]", "key": {"[1]": {"details": "Day 42, Cohort 4, two 12 mg doses"}, "[2]": {"details": "Day 42, Cohort 5, two 12 mg doses"}, "[3]": {"details": "Day 42, Cohort 6, two 16 mg doses"}, "[4]": {"details": "Day 42, Cohorts 4 and 5, two 12 mg doses"}, "[5]": {"details": "Day 42, Placebo/active group, one dose Day 22"}, "[6]": {"details": "Day 42, Placebo/active group: one psilocin-d10 dose Day 22"}, "[7]": {"details": "Day 42, two 12 mg doses (11 out of 14)"}, "[8]": {"details": "Day 42, two 12 mg doses, Cohorts 4 and 5"}, "[9]": {"details": "Day 42, two 16 mg doses, Cohort 6"}, "[10]": {"details": "Day 42, two doses (Day 1, Day 22), 12 and 16 mg pooled"}, "[11]": {"details": "Day 42, two doses, 12 and 16 mg pooled"}, "[12]": {"details": "Day 42, two doses, pooled 12 mg and 16 mg"}}, "note": "“And” between values parts separate entries of the source, which are not always exact repeats. Equal values may be shown once.", "data": [{"smiles": "[2H]C([2H])([2H])N(C([2H])([2H])[2H])C([2H])([2H])C([2H])([2H])c1c[nH]c2cccc(O)c12", "note": "[psilocin-d10, 3-(2-(bis(methyl-d3)amino)ethyl-1,1,2,2-d4)-1H-indol-4-ol]", "values": [{"measurement": "Relapse - Yes", "setting": "[1]", "value": "0 (0.0) n (%)"}, {"measurement": "Remission (MADRS ≤10) - Yes", "setting": "[1]", "value": "5 (71.4) n (%)"}, {"measurement": "Remission - No", "setting": "[1]", "value": "2 (28.6) n (%)"}, {"measurement": "Response (≥50% reduction from baseline MADRS) - Yes", "setting": "[1]", "value": "5 (71.4) n (%)"}, {"measurement": "Response - No", "setting": "[1]", "value": "2 (28.6) n (%)"}, {"measurement": "Relapse - No", "setting": "[2]", "value": "8 (100.0) n (%)"}, {"measurement": "Relapse - Yes", "setting": "[2]", "value": "0 (0.0) n (%)"}, {"measurement": "Remission (MADRS ≤10) - Yes", "setting": "[2]", "value": "6 (85.7) n (%)"}, {"measurement": "Remission - No", "setting": "[2]", "value": "1 (14.3) n (%)"}, {"measurement": "Response (≥50% reduction from baseline MADRS) - Yes", "setting": "[2]", "value": "6 (85.7) n (%)"}, {"measurement": "Response - No", "setting": "[2]", "value": "1 (14.3) n (%)"}, {"measurement": "Relapse - No", "setting": "[3]", "value": "8 (100.0) n (%)"}, {"measurement": "Relapse - Yes", "setting": "[3]", "value": "0 (0.0) n (%)"}, {"measurement": "Remission (MADRS ≤10) - Yes", "setting": "[3]", "value": "4 (50.0) n (%)"}, {"measurement": "Remission - No", "setting": "[3]", "value": "4 (50.0) n (%)"}, {"measurement": "Response (≥50% reduction from baseline MADRS) - Yes", "setting": "[3]", "value": "6 (75.0) n (%)"}, {"measurement": "Response - No", "setting": "[3]", "value": "2 (25.0) n (%)"}, {"measurement": "Relapse - No", "setting": "[4]", "value": "15 (100.0) n (%)"}, {"measurement": "Relapse - Yes", "setting": "[4]", "value": "0 (0.0) n (%)"}, {"measurement": "Remission (MADRS ≤10) - Yes", "setting": "[4]", "value": "11 (78.6) n (%)"}, {"measurement": "Remission - No", "setting": "[4]", "value": "3 (21.4) n (%)"}, {"measurement": "Response (≥50% reduction from baseline MADRS) - Yes", "setting": "[4]", "value": "11 (78.6) n (%)"}, {"measurement": "Response - No", "setting": "[4]", "value": "3 (21.4) n (%)"}, {"measurement": "Relapse - No", "setting": "[5]", "value": "9 (100.0) n (%)"}, {"measurement": "Relapse - Yes", "setting": "[5]", "value": "0 (0.0) n (%)"}, {"measurement": "Remission - No", "setting": "[5]", "value": "5 (55.6) n (%)"}, {"measurement": "Response (≥50% reduction from baseline MADRS) - Yes", "setting": "[5]", "value": "4 (44.4) n (%)"}, {"measurement": "Response - No", "setting": "[5]", "value": "5 (55.6) n (%)"}, {"measurement": "Remission (MADRS ≤10) - Yes", "setting": "Day 42, Placebo/active group, one dose Day 22 (pooled 12 mg and 16 mg)", "value": "4 (44.4) n (%)"}, {"measurement": "MADRS total score, Change from Baseline, Median", "setting": "[6]", "value": "−14.0"}, {"measurement": "MADRS total score, Observed, Median", "setting": "[6]", "value": 16.0}, {"measurement": "MADRS total score, Change from Baseline, Mean", "setting": "Day 42, Placebo/active group: one psilocin-d10 dose Day 22 (12 and 16 mg pooled)", "value": "−16.4"}, {"measurement": "MADRS total score, Observed, Mean", "setting": "Day 42, Placebo/active group: placebo Day 1, one psilocin-d10 dose Day 22 (12 and 16 mg pooled)", "value": 15.1}, {"measurement": "participants in remission", "setting": "Day 42, after second dose, 12 mg and 16 mg combined (15 out of 22)", "value": 68.2, "unit": "%"}, {"measurement": "participants with response", "setting": "Day 42, after second dose, 12 mg and 16 mg combined (17 out of 22)", "value": "77.3% and 77%"}, {"measurement": "participants with response", "setting": "Day 42, placebo/psilocin-d10 group, first dose Day 22 (4 out of 9)", "value": 44.4, "unit": "%"}, {"measurement": "participants in remission", "setting": "[7]", "value": 78.6, "unit": "%"}, {"measurement": "participants with response", "setting": "[7]", "value": 78.6, "unit": "%"}, {"measurement": "MADRS total score, Change from Baseline, Mean", "setting": "[8]", "value": "−22.8"}, {"measurement": "MADRS total score, Change from Baseline, Median", "setting": "[8]", "value": "−25.5"}, {"measurement": "MADRS total score, Observed, Mean", "setting": "[8]", "value": 9.4}, {"measurement": "MADRS total score, Observed, Median", "setting": "[8]", "value": 3.5}, {"measurement": "participants in remission", "setting": "Day 42, two 16 mg doses (4 out of 8)", "value": 50.0, "unit": "%"}, {"measurement": "participants with response", "setting": "Day 42, two 16 mg doses (6 out of 8)", "value": 75, "unit": "%"}, {"measurement": "MADRS total score, Change from Baseline, Mean", "setting": "[9]", "value": "−17.6"}, {"measurement": "MADRS total score, Change from Baseline, Median", "setting": "[9]", "value": "−20.5"}, {"measurement": "MADRS total score, Observed, Mean", "setting": "[9]", "value": 13.0}, {"measurement": "MADRS total score, Observed, Median", "setting": "[9]", "value": 11.5}, {"measurement": "MADRS total score, Change from Baseline, Mean", "setting": "[10]", "value": "−20.9"}, {"measurement": "MADRS total score, Observed, Mean", "setting": "[10]", "value": 10.7}, {"measurement": "MADRS total score, Change from Baseline, Median", "setting": "[11]", "value": "−24.5"}, {"measurement": "MADRS total score, Observed, Median", "setting": "[11]", "value": 7.0}, {"measurement": "Relapse - No", "setting": "[12]", "value": "22 (100.0) n (%)"}, {"measurement": "Relapse - Yes", "setting": "[12]", "value": "0 (0.0) n (%)"}, {"measurement": "Remission (MADRS ≤10) - Yes", "setting": "[12]", "value": "15 (68.2) n (%)"}, {"measurement": "Remission - No", "setting": "[12]", "value": "7 (31.8) n (%)"}, {"measurement": "Response (≥50% reduction from baseline MADRS) - Yes", "setting": "[12]", "value": "17 (77.3) n (%)"}, {"measurement": "Response - No", "setting": "[12]", "value": "5 (22.7) n (%)"}, {"measurement": "MADRS, Difference in LS Means, 12 mg (two doses) compared to Placebo/active (one dose)", "setting": "Day 42, 95% CI (−14.2, 7.5), P 0.5299", "value": "−3.34"}, {"measurement": "MADRS, Difference in LS Means, 12 mg compared to Cohort 6 (16 mg)", "setting": "Day 42, 95% CI (−15.3, 22.5), P 0.6999", "value": 3.58}, {"measurement": "MADRS, difference in LS means, 16 mg (two doses) versus Placebo/active (one dose)", "setting": "Day 42, 95% CI −22.8, 7.2, p=0.2931", "value": "−7.79"}, {"measurement": "participants meeting criteria for response", "setting": "Day 126, two 12 mg doses (Day 1, Day 22), N=15", "value": 73, "unit": "%"}, {"measurement": "participants meeting criteria for remission", "setting": "Day 126, two 12 mg doses, N=15", "value": 60, "unit": "%"}, {"measurement": "participants meeting criteria for response", "setting": "Day 126, two 16 mg doses (Day 1, Day 22), N=8", "value": 75, "unit": "%"}, {"measurement": "participants meeting criteria for remission", "setting": "Day 126, two 16 mg doses, N=8", "value": 75, "unit": "%"}, {"measurement": "effect size, Cohen's d, versus placebo (MADRS)", "setting": "single 12 mg dose, 95% CI: 0.92, 3.37", "value": 2.15}, {"measurement": "effect size, Cohen's d, versus placebo (MADRS)", "setting": "single 16 mg dose", "value": 2.54}]}]}
